Data from PMC11620517, “Novel hydrazone compounds with broad-spectrum antiplasmodial activity and synergistic interactions with antimalarial drugs” (Antimicrobial Agents and Chemotherapy, 2024).
Several values for one entry are separate records, joined by “and”; a condition that tells them apart may be missing. Equal entries are not always repeated. Where two headings read alike, the source gives them in different places.

Legend:
[1] = test system: primary primate hepatocytes; assay: hepatocyte toxicity in the P. cynomolgi liver-stage assay; format: cell-based
Protocol: Primary primate hepatocytes were seeded in 384-well plates and used within 2–4 days ([56]). P. cynomolgi B strain parasites were inoculated and developed into hypnozoites and schizonts. CB compounds were tested in 8-point, threefold serial dilutions (100 µM to […]) for both prophylactic (4 days starting with sporozoite addition) and radical cure (4 days starting day 4 post-inoculation) modalities ([56][–][60]). The Operetta CLS imaging system and Harmony Software 4.9 (Perkin Elmer, Waltham, MA, USA) analyzed the plates, and the percentage of inhibition (PI) was calculated in Python using equation (1), where parasitic quantities (hypnozoite and schizont counts) were normalized to the negative control ([57]). Each plate included negative (DMSO) and positive (KDU691, maduramicin, tafenoquine) controls ([58]). IC50 values were determined using an 8-point, threefold dilution format and a Python-adapted grid algorithm for fitting PI to a four-parameter logistic function ([61]).

[2] = test system: P. falciparum oocyst formation in Anopheles stephensi mosquitoes; assay: P. falciparum oocyst inhibition assay (SMFA); format: in vivo, Plasmodium falciparum; settings: for Median (oocysts) / Median I % / Prevalence % / Prevalence I %: pooled from two representative experiments; for oocyst formation inhibition: midguts dissected 8 days after feeding
Protocol: As previously described, P. falciparum infections were performed using SMFA with NF54 gametocyte cultures diluted to 0.3% stage V gametocytemia ([62]). Infected blood (O+ human 45% hematocrit in serum) was offered to mosquitoes for 30 minutes, and engorged mosquitoes were maintained on a 10% corn syrup solution supplemented by four concentrations of CB compounds (1, 2.5, 5, and 10 µM) at […] ([63]), with DMSO serving as a control. Eight days post-infection, mosquito midguts were dissected and stained with 0.2% mercurochrome for 30 minutes, and oocysts were quantified under a light microscope ([63]).

[3] = test system: P. berghei ookinete development (Ookluc parasites); assay: P. berghei ookinete luciferase inhibition assay; format: cell-based, Plasmodium berghei; settings: for IC50: 24 hours at 19°C, luminescence, read-out: IC50 (ookinete development)
Protocol: Mice were pretreated with phenylhydrazine [6 mg/mL, intraperitoneal injection (IP)] 3 days before intravenous injection (IV) infection with P. berghei Ookluc parasites ([19], [62]). Once parasitemia exceeded 15%, the mice received PYR (1 mg/mL, IP) ([19], [62]). Twenty-four hours after PYR treatment, infected mice were assessed for at least 10 exflagellations before blood was collected by heart puncture ([19], [62]). Infected blood (1:20 dilution) was incubated with 8-point serial dilutions (2.5–75 µM) of CB compounds for 24 hours at 19°C with gentle shaking ([62], [64]). Relative luminescence units (RLU) of mature ookinetes were measured using the Promega Nano-Glo Luciferase Assay System Kit and a SpectraMax M3 Microplate Reader (Molecular Devices, San Jose, CA, USA) after 3 minutes. Giemsa blood smears confirmed ookinetes.

[4] = 1 μM compound, P. falciparum midgut infection in An. stephensi mosquitoes
[5] = 1 μM compound, infection prevalence in mosquitoes
[6] = 2.5 μM compound, P. falciparum midgut infection in An. stephensi mosquitoes
[7] = 2.5 μM compound, infection prevalence in mosquitoes
[8] = 2.5 μM, single experiments, read-out: % inhibition (mean)
[9] = 2.5 μM, single experiments, read-out: % inhibition (median)
[10] = 5 μM compound, P. falciparum midgut infection in An. stephensi mosquitoes
[11] = 5 μM compound, infection prevalence in mosquitoes
[12] = 5 μM, single experiments, read-out: % inhibition (mean)
[13] = 10 μM compound, P. falciparum midgut infection in An. stephensi mosquitoes
[14] = 10 μM compound, infection prevalence in mosquitoes

Compound: COc1cccc(/C=N/NC(=O)c2nc(-c3ccccc3)cc(-c3ccccc3)n2)c1O [CB-41]
- Toxicity [1]: >10 µM
- Median oocyst # ([2]; 1 μM compound): 45
- Mean oocyst # excluding zeros (Range) [2, 4]: 53 (0-136)
- Prevalence [2, 5]: 85
- inhibition at 1 µM ([2]; 1 μM compound, vs DMSO control, read-out: % inhibition (prevalence)): 14%
- Median (oocysts) ([2]; 1 µM): 45
- Median I % ([2]; 1 µM): 18%
- Prevalence % ([2]; 1 µM): 85%
- Prevalence I % ([2]; 1 µM): 14%
- Mean oocyst # excluding zeros (Range) ([2]; 1 μM, single experiments): 53 (0-136) and 77 (0-156)
- Median oocyst # ([2]; 1 μM, single experiments): 45 and 63
- Median oocyst # ([2]; 2.5 μM compound): 44
- Mean oocyst # excluding zeros (Range) [2, 6]: 51 (0-123)
- Prevalence [2, 7]: 83
- inhibition at 2.5 µM ([2]; 2.5 μM compound, oocyst number vs DMSO control, read-out: % inhibition (mean)): 2%
- inhibition at 2.5 µM ([2]; 2.5 μM compound, oocyst number vs DMSO control, read-out: % inhibition (median)): 19%
- inhibition at 2.5 µM ([2]; 2.5 μM compound, vs DMSO control, read-out: % inhibition (prevalence)): 17%
- Median (oocysts) ([2]; 2.5 µM): 44
- Median I % ([2]; 2.5 µM): 19%
- Prevalence % ([2]; 2.5 µM): 83%
- Prevalence I % ([2]; 2.5 µM): 17%
- % inhibition (mean) ([2]; 2.5 μM, single experiments): 9%
- % inhibition (median) ([2]; 2.5 μM, single experiments): 30%
- Mean oocyst # excluding zeros (Range) ([2]; 2.5 μM, single experiments): 47 (0-92) and 55 (0-123) and 64 (0-156)
- Median oocyst # ([2]; 2.5 μM, single experiments): 40 and 48
- inhibition at 2.5 µM [2, 8]: 10%
- inhibition at 2.5 µM [2, 9]: 26%
- Median oocyst # ([2]; 5 μM compound): 32
- Mean oocyst # excluding zeros (Range) [2, 10]: 49 (0-108)
- Prevalence [2, 11]: 71
- inhibition at 5 µM ([2]; 5 μM compound, oocyst number vs DMSO control, read-out: % inhibition (mean)): 6%
- inhibition at 5 µM ([2]; 5 μM compound, oocyst number vs DMSO control, read-out: % inhibition (median)): 41%
- inhibition at 5 µM ([2]; 5 μM compound, vs DMSO control, read-out: % inhibition (prevalence)): 28%
- Median (oocysts) ([2]; 5 µM): 32
- Median I % ([2]; 5 µM): 41%
- Prevalence % ([2]; 5 µM): 71%
- Prevalence I % ([2]; 5 µM): 28%
- Mean oocyst # excluding zeros (Range) ([2]; 5 μM, single experiments): 45 (0-108) and 52 (0-107) and 70 (0-144)
- inhibition at 5 µM [2, 12]: 15%
- Median oocyst # ([2]; 10 μM compound): 35
- Mean oocyst # excluding zeros (Range) [2, 13]: 44 (0-128)
- Prevalence [2, 14]: 82
- inhibition at 10 µM ([2]; 10 μM compound, oocyst number vs DMSO control, read-out: % inhibition (mean)): 15%
- inhibition at 10 µM ([2]; 10 μM compound, vs DMSO control, read-out: % inhibition (prevalence)): 18%
- Median (oocysts) ([2]; 10 µM): 35
- Median I % ([2]; 10 µM): 36%
- Prevalence % ([2]; 10 µM): 82%
- Prevalence I % ([2]; 10 µM): 18%
- % inhibition (prevalence) ([2]; 10 μM, single experiments): 45%
- Mean oocyst # excluding zeros (Range) ([2]; 10 μM, single experiments): 37 (0-102) and 50 (0-128) and 59 (0-146)
- Median oocyst # ([2]; 10 μM, single experiments): 27 and 44
- inhibition at 10 µM ([2]; 10 μM, single experiments, read-out: % inhibition (prevalence)): 46%
- median inhibition percentage ([2]; 1 to 10 µM): below 50%
- prevalence inhibition percentage ([2]; 1 to 10 µM): below 50%
- oocyst formation inhibition ([2]; 1 to 10 µM): inhibited midgut oocyst formation in a dose-dependent manner
- IC50 [3]: 8.4 µM
- IC50 ([3]; Plasmodium berghei, 24 h): 16.6 µM

Compound: O=C(N/N=C/c1cc(Br)ccc1O)/C(=C/C=C/c1ccccc1)NC(=O)c1ccccc1 [CB-50]
- Toxicity [1]: >10 µM
- Median oocyst # ([2]; 1 μM compound): 8
- Mean oocyst # excluding zeros (Range) [2, 4]: 18 (0-95)
- Prevalence [2, 5]: 81
- Median (oocysts) ([2]; 1 µM): 8
- Prevalence % ([2]; 1 µM): 82%
- Prevalence ([2]; 1 μM, single experiments): 73 and 91 and 90
- inhibition at 1 µM ([2]; 1 μM, single experiments, read-out: % inhibition (mean)): 48%
- inhibition at 1 µM ([2]; 1 μM, single experiments, read-out: % inhibition (median)): 48%
- Median oocyst # ([2]; 2.5 μM compound): 9
- Mean oocyst # excluding zeros (Range) [2, 6]: 26 (0-103)
- Prevalence [2, 7]: 74
- Median (oocysts) ([2]; 2.5 µM): 9
- Prevalence % ([2]; 2.5 µM): 74%
- Prevalence ([2]; 2.5 μM, single experiments): 68 and 82 and 83
- inhibition at 2.5 µM [2, 8]: 38%
- inhibition at 2.5 µM [2, 9]: 48%
- inhibition at 2.5 µM ([2]; 2.5 μM, single experiments, read-out: % inhibition (prevalence)): 5%
- Median oocyst # ([2]; 5 μM compound): 7
- Mean oocyst # excluding zeros (Range) [2, 10]: 15 (0-67)
- Prevalence [2, 11]: 89
- Median (oocysts) ([2]; 5 µM): 7
- Prevalence % ([2]; 5 µM): 89%
- Prevalence ([2]; 5 μM, single experiments): 87 and 90 and 92
- inhibition at 5 µM [2, 12]: 19%
- inhibition at 5 µM ([2]; 5 μM, single experiments, read-out: % inhibition (median)): 3%
- Median oocyst # ([2]; 10 μM compound): 7
- Mean oocyst # excluding zeros (Range) [2, 13]: 18 (0-74)
- Prevalence [2, 14]: 74
- Median (oocysts) ([2]; 10 µM): 7
- Prevalence % ([2]; 10 µM): 74%
- Prevalence ([2]; 10 μM, single experiments): 65 and 88 and 89
- inhibition at 10 µM ([2]; 10 μM, single experiments, read-out: % inhibition (mean)): 52%
- inhibition at 10 µM ([2]; 10 μM, single experiments, read-out: % inhibition (median)): 61%
- oocyst formation inhibition ([2]; 1 to 10 µM): did not inhibit oocyst formation
- activity in ookinete formation ([3]; dose–response 2.5–75 µM): no activity
